The test system of assay [1] is 8305C (Thyroid Gland Carcinoma). Kind of assay: Bliss excess, mean over the matrix (fraction); higher = more synergy. The procedure, abridged:
(§1)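 After 24 hours at 37°C and 5% CO2 in 1536-well plates, cells in DMEM/F12 or RPMI plus 10% FBS received two-drug dose matrices for 72 hours. Viability came from CellTiter-Glo 2.0 luminescence and was scaled as inhibition, anchored at 0 by vehicle wells and at 1 by blank wells. Combination Emax is taken as the second-highest inhibition in the matrix, and Bliss excess as the observed combination effect less EA + EB − EA·EB, with EA and EB the single-agent effects.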

Assay [2] concerns NCI-H2795 (Mesothelioma). The assay is described as above. Summed up: as §1
The test system of assay [3] is NCI-H69 (Small Cell Lung Carcinoma). Described as above. Summed up: as §1
The test system of assay [4] is HMV-II (Melanoma). The assay is described as above. The procedure, abridged: as §1
The test system of assay [5] is SUP-T1 (T-Lymphoblastic Leukemia). The description is as above. The procedure, abridged:
as §1

The subject of assay [6] is LU-139 (Small Cell Lung Carcinoma). The assay is described as above. The procedure, abridged:
as §1

The subject of assay [7] is Mewo (Melanoma). The description is as above. The procedure, abridged: as §1
In assay [8] the test system is RT-112 (Bladder Carcinoma). The assay is described as above. The procedure, abridged: as §1
In assay [9] the test system is K5 (Thyroid Gland Carcinoma). Described as above. Summed up:
as §1

For assay [10], the system named is SW1271 (Small Cell Lung Carcinoma). Described as above. The procedure, abridged:
as §1

Assay [11] relates to CAL-54 (Kidney Carcinoma). Kind of assay: combination Emax (second highest fraction inhibited in the dose matrix, 72 h); higher = more inhibition; extreme values may be limits of the assay. The procedure, abridged: as §1
Assay [12] relates to HARA (Squamous Cell Lung Carcinoma). Described as above. The procedure, abridged:
as §1

Assay [13] deals with NCI-H2795 (Mesothelioma). Described as above. The procedure, abridged: as §1
Assay [14] deals with MDA-MB-468 (Breast Carcinoma). Described as above. Summed up:
as §1

Assay [15] deals with NCI-H28 (Mesothelioma). Described as above. The procedure, abridged:
as §1

In assay [16] the test system is LoVo (Colorectal Carcinoma). Described as above. Summed up:
as §1

Assay [17] relates to HDLM-2 (Hodgkin's Lymphoma). Described as above. Summed up: as §1
Assay [18] relates to NCI-H2461 (Mesothelioma). Described as above. The procedure, abridged: as §1
Assay [19] relates to SUP-T1 (T-Lymphoblastic Leukemia). The description is as above. Summed up:
as §1

Assay [20] deals with CAPAN-1 (Pancreatic Carcinoma). The assay is described as above. Summed up: as §1
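For Bliss excess, mean over the matrix in this document: after 72 h of two-drug dosing.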

For the compound `C=CCn1c(=O)c2cnc(Nc3ccc(N4CCN(C)CC4)cc3)nc2n1-c1cccc(C(C)(C)O)n1` [AZD1775] + Nc1ccn([C@@H]2O[C@H](CO)[C@@H](O)C2(F)F)c(=O)n1 [Gemcitabine] (first compound max 1 µM, partner max 0.3 µM), the Bliss excess was -0.0524 in [1]; -0.0549 in assay [2]; -0.0754 in assay [3]; -0.0355 in assay [4]; -0.047 in assay [5]; -0.0304 in assay [6]. The Bliss excess was -0.0623 in assay [7], 0.148 in assay [8], -0.0194 in assay [9] and -0.0558 in assay [10]. Also, the “combination Emax” value amounted to 0.787 in [11]; 0.912 in assay [12]; 0.785 in assay [13]; 0.733 in assay [14]; 0.685 in assay [15]; 0.808 in assay [16]. Also, the “combination Emax” value in assay [17] is 0.763; in assay [18], 0.63; in assay [19], 0.862; in assay [20], 0.697.

Consider `N#Cc1cnc(Nc2cc(NC[C@H]3CNCCO3)c(C(F)(F)F)cn2)cn1` [SRA737] + O=c1[nH]cc(F)c(=O)[nH]1 [5-Fluorouracil] (first compound max 10 µM, 7x7, partner max 20 µM), for which the Bliss excess in [1] is -0.0326; in assay [2], 0.0744; in assay [3], -0.0461; in [4] it was -0.0542; in assay [5] it was 0.0112; in [6], 0.0169. The Bliss excess was -0.0136 in assay [7], 0.0881 in assay [8], -0.0459 in [9] and -0.0472 in assay [10]. The “combination Emax” value stood at 0.565 in assay [11]; 0.89 in assay [12]; 0.759 in assay [13]; 0.344 in [14]; 0.28 in assay [15]; 0.652 in assay [16]. The “combination Emax” value in [17] came to 0.645; in assay [18], 0.526; in assay [19] it was 0.662; in assay [20], 0.349.

In the case of `CN(CCO)CC[C@H](CSc1ccccc1)Nc1ccc(S(=O)(=O)NC(=O)c2ccc(N3CCC([C@@H](O)c4ccccc4-c4ccc(Cl)cc4)CC3)cc2)cc1S(=O)(=O)C(F)(F)F` [AZD4320] + CC(=O)O[C@H]1C(=O)[C@@]2(C)[C@H]([C@H](OC(=O)c3ccccc3)[C@]3(O)C[C@H](OC(=O)[C@H](O)[C@@H](NC(=O)c4ccccc4)c4ccccc4)C(C)=C1C3(C)C)[C@]1(OC(C)=O)CO[C@@H]1C[C@@H]2O [Paclitaxel] (first compound max 1 µM, 7x7, partner max 3 µM), the Bliss excess in assay [1] was 0.0435; in [2], 0.0621; in assay [3], 0.0089; in assay [4] it was 0.101; in assay [5] it was -0.024; in assay [6], 0.0242. Also, the Bliss excess turned out to be 0.0548 in assay [7], 0.0111 in assay [8], 0.0018 in assay [9] and 0.108 in [10]. The “combination Emax” value turned out to be 0.773 in [11]; 0.999 in assay [12]; 0.837 in assay [13]; 0.881 in assay [14]; 0.823 in assay [15]; 0.746 in assay [16]. Moreover, the “combination Emax” value in assay [17] worked out at 1; in [18], 0.75; in assay [19], 0.852; in assay [20], 0.874.

Turning to `CC1(C)CCC(CN2CCN(c3ccc(C(=O)NS(=O)(=O)c4ccc(NCC5CCOCC5)c([N+](=O)[O-])c4)c(Oc4cnc5[nH]ccc5c4)c3)CC2)=C(c2ccc(Cl)cc2)C1` [Venetoclax] + CS(=O)(=O)CCNCc1ccc(-c2ccc3ncnc(Nc4ccc(OCc5cccc(F)c5)c(Cl)c4)c3c2)o1 [Lapatinib] (first compound max 1 µM, 7x7, partner max 10 µM), the Bliss excess in assay [1] is -0.0112; in [2] it was -0.058; in assay [3] it was 0.0391; in assay [4], -0.045; in assay [5], -0.0249; in assay [6] it was -0.0061. Also, the Bliss excess in assay [7] is -0.0949; in assay [8], -0.0371; in assay [9], -0.0404; in assay [10] it was -0.0239. The “combination Emax” value in [11] is 0.52; in assay [12], 0.584; in [13] it was 0.341; in [14] it was 0.635; in assay [15] it was 0.362; in assay [16], 0.486. Moreover, the “combination Emax” value in assay [17] was determined as 0.629; in [18], 0.268; in assay [19], 0.484; in assay [20], 0.261.

For the compound `CN(CCO)CC[C@H](CSc1ccccc1)Nc1ccc(S(=O)(=O)NC(=O)c2ccc(N3CCC([C@@H](O)c4ccccc4-c4ccc(Cl)cc4)CC3)cc2)cc1S(=O)(=O)C(F)(F)F` [AZD4320] + CS(=O)(=O)CCNCc1ccc(-c2ccc3ncnc(Nc4ccc(OCc5cccc(F)c5)c(Cl)c4)c3c2)o1 [Lapatinib] (first compound max 1 µM, 7x7, partner max 10 µM), the Bliss excess is -0.0526 in [1]; 0.0148 in assay [2]; 0.0363 in assay [3]; -0.0663 in assay [4]; 0.0226 in assay [5]; 0.0054 in assay [6]. The Bliss excess was -0.0386 in assay [7], 0.0152 in assay [8], 0.0213 in assay [9] and -0.0178 in assay [10]. For the same compound, the “combination Emax” value in [11] is 0.951; in assay [12] it was 0.906; in [13], 0.71; in assay [14], 0.963; in [15], 0.826; in assay [16], 0.562. In addition, the “combination Emax” value is 0.985 in assay [17], 0.512 in assay [18], 0.866 in assay [19] and 0.6 in [20].

In the case of `O=C(c1cc(Cc2n[nH]c(=O)c3ccccc23)ccc1F)N1CCN(C(=O)C2CC2)CC1` [Olaparib] + COc1nnc2ccc(N3CCC(c4ccc(OCCN5CCN(C)C(=O)[C@H]5C)cc4)CC3)nn12 [AZD5153] (first compound max 10 µM, 7x7, partner max 1 µM), the Bliss excess in [1] was -0.0634; in assay [2], -0.085; in assay [3], 0.0144; in assay [4] it was -0.046; in [5], -0.0512; in assay [6] it was -0.0194. Also, the Bliss excess in assay [7] was -0.074; in [8], -0.0332; in [9], -0.0392; in assay [10] it was -0.0668. Besides, the “combination Emax” value came out at 0.737 in [11]; 0.582 in assay [12]; 0.651 in assay [13]; 0.503 in assay [14]; 0.422 in assay [15]; 0.436 in assay [16]. Also, the “combination Emax” value in assay [17] was determined as 0.356; in assay [18], 0.42; in assay [19] it was 0.792; in [20] it was 0.418.

Source of the values: the supplement of paper PMC11061612.
